Measured values taken from patent US7186825B2, “Conformationally restricted polyamine analogs as disease therapies” (Cellgate, Inc., priority 1999, dated 2007).
Read-outs that look alike come from different tables or passages of the source.

Key:
Assay type in all cases: cell-based
[1] = tested on: human prostate cancer cells PC3; assay: MTT assay, survival/growth of cultured human prostate cancer cells PC3; conditions: for EC50: figure legends, survival of cultured PC3 cells, MTT, six days after drug treatment, read-out: ED50 (the source's name); for IC50: read-out: concentration needed for 50% growth inhibition (ID50), Table 3, PC-3
Method: (§1) Human breast cancer cell line MCF7 was grown in Richter's Improved Modified Eagle's Medium supplemented with 10% fetal bovine serum (FBS) and 2.2 g/L sodium bicarbonate. Human brain tumor cell line U251 MG-NCI was grown in Dulbecco's Modified Eagle's Medium supplemented with 10% FBS. Human lung cancer cell line A549 was grown in Ham's F-12K medium (Cellgro, Mediatech, Inc., VA), supplemented with 10% FBS and 2 mM L-glutamine. Human colon cancer cell line HT29 was cultured in McCoy's 5A medium (Gibco, BRL, Gaithersburg, Md.) supplemented with 10% FBS. Human prostate cancer cell lines PC-3, LNCAP and DuPro were grown in RPMI 1640 Medium (Cellgro, Mediatech, Inc., VA) supplemented with 10% FBS. Another human prostate cancer cell line DU145 was grown in Dulbecco's Modified Eagle's Medium (Gibco, BRL, Gaithersburg, Md.) supplemented with 5% FBS. The A549, MCF7, PC3, LNCAP and DuPro cell lines were cultured in 100 units/mL penicillin and 100 μg/mL streptomycin. HT29 and U251MG cell lines were grown in 50 μg/mL gentamycin (Gibco, BRL, Gaithersburg, Md.). DU145 cell line was maintained in 1% antibitic-antimycotic solution (Sigma, St. Louis, Mo.). The cell cultures were maintained at 37° C. in 5% CO2/95% humidified air. DuPro cells were obtained from M. Eileen Dolan, University of Chicago. All other cells are available from the American Type Culture Collection, Rockville, Md.
(§2) A conventional MTT assay was used to evaluate percent cell survival. Exponentially growing monolayer cells were plated in 96-well plates at a density of 500 cells per well and allowed to grow for 24 hours. Serial dilutions of the drugs were added to the wells. Six days after drug treatment, 25 μl of MTT solution (5 mg/ml) was added to each well and incubated for 4 hours at 37° C. Then 100 μl of lysis buffer (20% sodium dodecyl sulfate, 50% DMF, and 0.8% acetic acid, pH 4.7) was added to each well and incubated for an additional 22 hours. A microplate reader (“EMAX”-brand, Molecular Devices, Sunnyvale, Calif.) set at 570 nm was used to determine the optical density of the cultures. Results are expressed as a ratio of the optical density in drug-treated wells to the optical density in wells treated with vehicle only.
(§3) Using the protocols of Example 2, the porphyrin-polyamine conjugates were tested for activity in vitro in various cancer cell lines.

[2] = tested on: human brain tumor cells U251 MG NCI; assay: MTT assay, survival/growth of cultured human brain tumor cells U251 MG NCI; conditions: for EC50: figure legends, survival of cultured U251 MG NCI cells, MTT, six days after drug treatment, read-out: ED50 (the source's name); for IC50: Table 3, U251MG
Method: as §1, §2

[3] = tested on: human colon cancer cells HT29; assay: MTT assay, survival/growth of cultured human colon cancer cells HT29; conditions: for EC50: figure legends, survival of cultured HT29 cells, MTT, six days after drug treatment, read-out: ED50 (the source's name); for IC50: read-out: concentration needed for 50% growth inhibition (ID50), Table 3, HT-29
Method: (§4) As shown in Table 3 and FIGS. 1–32, several novel conformationally restricted polyamine analogs were tested for anti-proliferative properties against cancer cells.
as §1, §2

[4] = tested on: human lung cancer cells A549; assay: MTT assay, survival/growth of cultured human lung cancer cells A549; conditions: for EC50: figure legends, survival of cultured A549 cells, MTT, six days after drug treatment, read-out: ED50 (the source's name); for IC50: read-out: concentration needed for 50% growth inhibition (ID50); for IC50 / concentration needed for 50% growth inhibition (ID50): Table 3, A549
Method: as §4, §1, §2

[5] = tested on: human breast cancer cells MCF7; assay: MTT assay, survival/growth of cultured human breast cancer cells MCF7; conditions: for EC50: figure legends, survival of cultured MCF7 cells, MTT, six days after drug treatment, read-out: ED50 (the source's name); for IC50: read-out: concentration needed for 50% growth inhibition (ID50), Table 3, MCF7
Method: as §4, §1, §2

[6] = tested on: human prostate cancer cells DU145; assay: MTT assay, survival/growth of cultured human prostate cancer cells DU145; conditions: for EC50: figure legends, survival of cultured DU145 cells, MTT, six days after drug treatment, read-out: ED50 (the source's name); for IC50: read-out: concentration needed for 50% growth inhibition (ID50), Table 3, DU-145
Method: as §1, §2, §3

[7] = tested on: human prostate cancer cells DUPRO; assay: MTT assay, survival/growth of cultured human prostate cancer cells DUPRO; conditions: for EC50: figure legends, survival of cultured DUPRO cells, MTT, six days after drug treatment, read-out: ED50 (the source's name); for IC50: read-out: concentration needed for 50% growth inhibition (ID50), Table 3, DUPRO
Method: as §1, §2, §3

[8] = Homo sapiens, U-251, read-out: concentration needed for 50% growth inhibition (ID50)
[9] = read-out: concentration needed for 50% growth inhibition (ID50)

Row | SMILES | EC50 [2] [µM] | EC50 [6] [µM] | IC50 ([1]; Homo sapiens) [µM] | IC50 [2, 8] [µM] | IC50 ([3]; Homo sapiens) [µM] | IC50 ([4]; Homo sapiens) [µM] | IC50 ([5]; Homo sapiens) [µM] | IC50 ([6]; Homo sapiens) [µM] | IC50 [1] [µM] | IC50 [3] [µM] | IC50 [6] [µM] | further results
1 | CCNCCCNCCCNCCCNCC [BE-333, N1,N11-diethylnorspermine, reference compound] | 0.23 | 0.12 |  |  |  |  |  |  |  |  |  | EC50 [1]: 0.34 µM; EC50 [3]: 0.3 µM; EC50 [4]: 0.3 µM; EC50 [5]: 3.7 µM; EC50 [7]: 0.9 µM
2 | CCNCCCNCCCCNCCCNCC [BE-343, N1,N12-bis(ethyl) spermine, reference compound] | 0.14 | 0.044 |  |  |  |  |  |  |  |  |  | EC50 [1]: 0.24 µM; EC50 [3]: 0.6 µM; EC50 [4]: 0.2 µM; EC50 [5]: 0.5 µM
3 | CNCCCNC[C@H]1CC[C@H]1CNCCCNC [SL-11090] |  |  | > 31.2 | > 31.2 | > 31.2 | > 31.2 | > 31.2 | > 31.2 |  |  |  | 
4 | CCNCCCNCC#CCNCCCNCC [SL-11091] |  |  | > 31.2 | > 31.2 | > 31.2 | > 31.2 | > 31.2 | 1.33 |  |  |  | EC50 ([1]; Homo sapiens, PC-3, 144 h): > 31.2 µM; EC50 ([2]; Homo sapiens, U-251, 144 h): > 31.2 µM; EC50 ([3]; Homo sapiens, HT-29, 144 h): > 31.2 µM; EC50 ([4]; Homo sapiens, 144 h): > 31.2 µM; EC50 ([5]; Homo sapiens, 144 h): > 31.2 µM; EC50 ([6]; Homo sapiens, DU-145, 144 h): 4.33 µM
5 | CNCCCNCC#CCNCCCNC [SL-11092] |  |  | > 31.2 | > 31.2 | > 31.2 | > 31.2 | > 31.2 | 1.7 |  |  |  | 
6 | CCNCCCNCc1ccccc1CNCCCNCC [SL-11094] |  | 15.4 |  |  |  |  |  |  | > 31.2 | 28.8 | 12.6 | IC50 [2, 9]: > 31.2 µM; concentration needed for 50% growth inhibition (ID50) [4]: >31.25 µM; IC50 [5]: > 31.2 µM
7 | CCNCCCCNC/C=C/CNCCCCNCC [SL-11101] |  |  | 7.7 | 1.7 | 5.2 | 0.15 | > 31.2 | 0.218 |  |  |  | EC50 ([1]; Homo sapiens, PC-3, 144 h): 7.7 µM; EC50 ([2]; Homo sapiens, U-251, 144 h): 1.7 µM; EC50 ([4]; Homo sapiens, 144 h): 2.2 µM; EC50 ([5]; Homo sapiens, 144 h): > 31.2 µM; EC50 ([6]; Homo sapiens, DU-145, 144 h): 0.22 µM; EC50 ([7]; Homo sapiens, 144 h): 0.85 µM; IC50 ([7]; Homo sapiens): 0.85 µM
8 | CCNCCCCNC/C=C\CNCCCCNCC [SL-11102] | 0.15 | 0.03 |  |  |  |  |  |  | > 31.2 | 0.73 | 0.027 | EC50 [1]: > 31.2 µM; IC50 [2, 9]: 0.15 µM; concentration needed for 50% growth inhibition (ID50) [4]: 12.40 µM; EC50 [4]: 0.15 µM; IC50 [5]: > 31.2 µM; EC50 [7]: 0.15 µM; IC50 [7]: 0.15 µM
9 | CCNCCCCNCC#CCNCCCCNCC [SL-11103] |  |  | > 31.2 | 9.5 | 29.4 | > 31.2 | > 31.2 | 2.8 |  |  |  | EC50 ([1]; Homo sapiens, PC-3, 144 h): > 31.2 µM; EC50 ([2]; Homo sapiens, U-251, 144 h): 9.5 µM; EC50 ([4]; Homo sapiens, 144 h): 12.4 µM; EC50 ([5]; Homo sapiens, 144 h): > 31.2 µM; EC50 ([6]; Homo sapiens, DU-145, 144 h): 2.8 µM
10 | CCNCCCCNCc1ccccc1CNCCCCNCC [SL-11104] | 14.7 | 9.4 |  |  |  |  |  |  | > 31.2 | 25.8 | 9.4 | IC50 [2, 9]: 14.7 µM; concentration needed for 50% growth inhibition (ID50) [4]: 0.43 µM; IC50 [5]: > 31.2 µM
11 | CCNC/C=C\CNC/C=C\CNCCCCNCC [SL-11119] |  | 0.08 |  |  |  |  |  |  | > 31.2 | 0.97 | 0.08 | EC50 [7]: 0.44 µM; IC50 [7]: 0.44 µM
